According to patent US20240207247A1, “METHODS FOR THE COMBINED ADMINISTRATION OF DEUTETRABENAZINE AND A CYP2D6 INHIBITOR” (Neurocrine Biosciences, Inc., priority 2021, published 2024):

Key:
[1] = Phase 1 open-label 2-sequence crossover single-dose pharmacokinetic study of deutetrabenazine metabolites; assay type: in vivo, human (healthy male and female subjects); settings: share of total DHTBZ exposure after single dose deutetrabenazine 24 mg, healthy subjects
Method: A phase 1, open-label, 2-sequence crossover study was conducted to evaluate the HTBZ PK profile following administration of valbenazine (40 mg) or deutetrabenazine (24 mg) to a total of 18 healthy male and female subjects. Subjects received a single dose of valbenazine 40 mg on Day 1 and a single dose of deutetrabenazine 24 mg on Day 16; or received a single dose of deutetrabenazine 24 mg on Day 1 and a single dose of valbenazine 40 mg on Day 16. Valbenazine 40 mg was administered as one 40 mg capsule and deutetrabenazine 24 mg was administered as two 12 mg tablets. Study drug was administered at approximately 0800 hours, approximately 30 minutes after the start of a standard breakfast. […] PK parameters were determined using non-compartmental analysis with Phoenix WinNonlin 8.3 software. The in vitro pharmacology of the deuterated HTBZ metabolites was assessed using competitive radioligand binding assays.

[2] = paroxetine 20 mg daily for 8 days, then single 22.5 mg dose of deutetrabenazine; 24 healthy subjects; cited from earlier work

Row | AUC (% of Total) [1] | Compound | increase in mean half-life in the presence of paroxetine [2]
1 | 2% | [2H]C([2H])([2H])Oc1cc2c(cc1OC([2H])([2H])[2H])[C@H]1C[C@@H](O)[C@H](CC(C)C)CN1CC2 [[+]-α-DHTBZ] | 
2 | 29% | [2H]C([2H])([2H])Oc1cc2c(cc1OC([2H])([2H])[2H])[C@H]1C[C@H](O)[C@H](CC(C)C)CN1CC2 [[+]-β-DHTBZ, (+)-β-3-isobutyl-9,10-di(methoxy-d3)-1,3,4,6,7,11b-hexahydro-2H-pyrido[2,1-a]isoquinolin-2-ol] | 
3 | 66% | [2H]C([2H])([2H])Oc1cc2c(cc1OC([2H])([2H])[2H])[C@@H]1C[C@H](O)[C@@H](CC(C)C)CN1CC2 [[−]-α-DHTBZ, (−)-α-3-isobutyl-9,10-di(methoxy-d3)-1,3,4,6,7,11b-hexahydro-2H-pyrido[2,1-a]isoquinolin-2-ol] | 
4 | 3% | [2H]C([2H])([2H])Oc1cc2c(cc1OC([2H])([2H])[2H])[C@@H]1C[C@@H](O)[C@@H](CC(C)C)CN1CC2 [[−]-β-DHTBZ, (−) -β-3-isobutyl-9,10-di(methoxy-d3)-1,3,4,6,7,11b-hexahydro-2H-pyrido[2,1-a]isoquinolin-2-ol] | 
5 |  | COc1cc2c(cc1OC)[C@@H]1C[C@H](O)[C@@H](CC(C)C)CN1CC2 [α-DHTBZ] | approximately 1.5 fold
